Data reported in patent US7964531B2, “3-phenoxy-4-pyridazinol derivatives and herbicidal composition containing the same” (Mitsui Chemicals Agro, Inc., priority 2001, dated 2011).

Experiments:
Assay type in all cases: in vivo
Conditions in all cases: wettable powder applied 3 days after transplanting, judged after 25 days
[1] = test system: transplanted paddy-field rice; test: Test Example 1: crop injury against transplanted paddy-field rice
How it was run: (§1)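 Paddy soil pots sown with dormancy-broken weed seeds mixed into the top 1 cm, plus germinated Cyperus serotinus tubers and transplanted 2.2-leaf rice seedlings, grown flooded in a greenhouse. Water-diluted wettable powder applied 3 days after transplanting; growth inhibition scored 25 days later on a 0–5 scale (0 = 0–10%, 5 = 91–100%).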

[2] = test system: barnyardgrass (Echinochloa oryzicola Vasing.); test: Test Example 1: herbicidal effects, paddy-field pot test
How it was run: as §1

[3] = test system: Cyperus serotinus; test: as above
How it was run: as §1

[4] = test system: Scirpus joncoides; test: as above
How it was run: as §1

[5] = test system: annual broad-leaved weeds (Lindernia spp., Rotala indica); test: as above
How it was run: as §1

With `Oc1cc(Cl)nnc1Oc1c(F)cccc1Br` [Example 233] the “Crop injury against transplanted rice” value ([1]; chemical dosage 10 g/a) was 0 (Growth inhibition rate; 0 to 10%), the “Crop injury against transplanted rice” value ([1]; chemical dosage 20 g/a) was 0 (Growth inhibition rate; 0 to 10%) and the “Herbicidal effects Barnyard grass” value ([2]; chemical dosage 10 g/a) was 3 (Growth inhibition rate; 51 to 70%). The “Herbicidal effects Barnyard grass” value ([2]; chemical dosage 20 g/a) was 4 (Growth inhibition rate; 71 to 90%), the “Herbicidal effects Cyperus serotinus” value ([3]; chemical dosage 10 g/a) was 4 (Growth inhibition rate; 71 to 90%) and the “Herbicidal effects Cyperus serotinus” value ([3]; chemical dosage 20 g/a) was 5 (Growth inhibition rate; 91 to 100%). The “Herbicidal effects Scirpus joncoides” value ([4]; chemical dosage 10 g/a) was 3 (Growth inhibition rate; 51 to 70%), the “Herbicidal effects Scirpus joncoides” value ([4]; chemical dosage 20 g/a) was 5 (Growth inhibition rate; 91 to 100%) and the “Herbicidal effects Broad leaf” value ([5]; chemical dosage 10 g/a) was 4 (Growth inhibition rate; 71 to 90%). The “Herbicidal effects Broad leaf” value ([5]; chemical dosage 20 g/a) was 5 (Growth inhibition rate; 91 to 100%).
`CS(=O)(=O)Oc1cc(Cl)nnc1Oc1ccccc1C1CC1` [Example 357] was tested, and the “Crop injury against transplanted rice” value ([1]; chemical dosage 10 g/a) was 0 (Growth inhibition rate; 0 to 10%), the “Crop injury against transplanted rice” value ([1]; chemical dosage 20 g/a) was 0 (Growth inhibition rate; 0 to 10%) and the “Herbicidal effects Barnyard grass” value ([2]; chemical dosage 10 g/a) was 2 (Growth inhibition rate; 31 to 50%). The “Herbicidal effects Barnyard grass” value ([2]; chemical dosage 20 g/a) was 3 (Growth inhibition rate; 51 to 70%), the “Herbicidal effects Cyperus serotinus” value ([3]; chemical dosage 10 g/a) was 5 (Growth inhibition rate; 91 to 100%) and the “Herbicidal effects Cyperus serotinus” value ([3]; chemical dosage 20 g/a) was 5 (Growth inhibition rate; 91 to 100%). For the same compound, the “Herbicidal effects Scirpus joncoides” value ([4]; chemical dosage 10 g/a) was 5 (Growth inhibition rate; 91 to 100%), the “Herbicidal effects Scirpus joncoides” value ([4]; chemical dosage 20 g/a) was 5 (Growth inhibition rate; 91 to 100%) and the “Herbicidal effects Broad leaf” value ([5]; chemical dosage 10 g/a) was 5 (Growth inhibition rate; 91 to 100%). For the same compound, the “Herbicidal effects Broad leaf” value ([5]; chemical dosage 20 g/a) was 5 (Growth inhibition rate; 91 to 100%).
`CCOc1cccc(C2CC2)c1Oc1nnc(Cl)cc1O` [Example 277] was tested, and the “Crop injury against transplanted rice” value ([1]; chemical dosage 10 g/a) was 0 (Growth inhibition rate; 0 to 10%), the “Crop injury against transplanted rice” value ([1]; chemical dosage 20 g/a) was 0 (Growth inhibition rate; 0 to 10%) and the “Herbicidal effects Barnyard grass” value ([2]; chemical dosage 10 g/a) was 0 (Growth inhibition rate; 0 to 10%). The “Herbicidal effects Barnyard grass” value ([2]; chemical dosage 20 g/a) was 1 (Growth inhibition rate; 11 to 30%), the “Herbicidal effects Cyperus serotinus” value ([3]; chemical dosage 10 g/a) was 5 (Growth inhibition rate; 91 to 100%) and the “Herbicidal effects Cyperus serotinus” value ([3]; chemical dosage 20 g/a) was 5 (Growth inhibition rate; 91 to 100%). For the same compound, the “Herbicidal effects Scirpus joncoides” value ([4]; chemical dosage 20 g/a) was 5 (Growth inhibition rate; 91 to 100%), the “Herbicidal effects Broad leaf” value ([5]; chemical dosage 10 g/a) was 5 (Growth inhibition rate; 91 to 100%) and the “Herbicidal effects Broad leaf” value ([5]; chemical dosage 20 g/a) was 5 (Growth inhibition rate; 91 to 100%).
For `Cc1cc(C)c(Oc2nnc(Cl)cc2O)c(C)c1` [Example 317], the “Crop injury against transplanted rice” value ([1]; chemical dosage 12.5 g/a) was 0 (Growth inhibition rate; 0 to 10%), the “Crop injury against transplanted rice” value ([1]; chemical dosage 25 g/a) was 1 (Growth inhibition rate; 11 to 30%) and the “Herbicidal effects Barnyard grass” value ([2]; chemical dosage 12.5 g/a) was 0 (Growth inhibition rate; 0 to 10%). For the same compound, the “Herbicidal effects Barnyard grass” value ([2]; chemical dosage 25 g/a) was 0 (Growth inhibition rate; 0 to 10%), the “Herbicidal effects Cyperus serotinus” value ([3]; chemical dosage 12.5 g/a) was 5 (Growth inhibition rate; 91 to 100%) and the “Herbicidal effects Cyperus serotinus” value ([3]; chemical dosage 25 g/a) was 5 (Growth inhibition rate; 91 to 100%). For the same compound, the “Herbicidal effects Scirpus joncoides” value ([4]; chemical dosage 12.5 g/a) was 2 (Growth inhibition rate; 31 to 50%), the “Herbicidal effects Scirpus joncoides” value ([4]; chemical dosage 25 g/a) was 3 (Growth inhibition rate; 51 to 70%) and the “Herbicidal effects Broad leaf” value ([5]; chemical dosage 12.5 g/a) was 4 (Growth inhibition rate; 71 to 90%). The “Herbicidal effects Broad leaf” value ([5]; chemical dosage 25 g/a) was 5 (Growth inhibition rate; 91 to 100%).
In the case of `Oc1cc(Cl)nnc1Oc1ccccc1C1CCCC1` [Example 88], the “Crop injury against transplanted rice” value ([1]; chemical dosage 12.5 g/a) is reported as 0 (Growth inhibition rate; 0 to 10%), the “Crop injury against transplanted rice” value ([1]; chemical dosage 25 g/a) is reported as 0 (Growth inhibition rate; 0 to 10%) and the “Herbicidal effects Barnyard grass” value ([2]; chemical dosage 12.5 g/a) is reported as 0 (Growth inhibition rate; 0 to 10%). For the same compound, the “Herbicidal effects Barnyard grass” value ([2]; chemical dosage 25 g/a) was 0 (Growth inhibition rate; 0 to 10%), the “Herbicidal effects Cyperus serotinus” value ([3]; chemical dosage 12.5 g/a) was 5 (Growth inhibition rate; 91 to 100%) and the “Herbicidal effects Cyperus serotinus” value ([3]; chemical dosage 25 g/a) was 5 (Growth inhibition rate; 91 to 100%). For the same compound, the “Herbicidal effects Scirpus joncoides” value ([4]; chemical dosage 12.5 g/a) was 4 (Growth inhibition rate; 71 to 90%), the “Herbicidal effects Scirpus joncoides” value ([4]; chemical dosage 25 g/a) was 5 (Growth inhibition rate; 91 to 100%) and the “Herbicidal effects Broad leaf” value ([5]; chemical dosage 12.5 g/a) was 4 (Growth inhibition rate; 71 to 90%). For the same compound, the “Herbicidal effects Broad leaf” value ([5]; chemical dosage 25 g/a) was 5 (Growth inhibition rate; 91 to 100%).
In the case of `Oc1cc(Cl)nnc1Oc1c(Br)cccc1C1CC1` [Example 253], the “Crop injury against transplanted rice” value ([1]; chemical dosage 10 g/a) is reported as 5 (Growth inhibition rate; 91 to 100%), the “Crop injury against transplanted rice” value ([1]; chemical dosage 20 g/a) is reported as 5 (Growth inhibition rate; 91 to 100%) and the “Herbicidal effects Barnyard grass” value ([2]; chemical dosage 10 g/a) is reported as 3 (Growth inhibition rate; 51 to 70%). For the same compound, the “Herbicidal effects Barnyard grass” value ([2]; chemical dosage 20 g/a) was 4 (Growth inhibition rate; 71 to 90%), the “Herbicidal effects Cyperus serotinus” value ([3]; chemical dosage 10 g/a) was 5 (Growth inhibition rate; 91 to 100%) and the “Herbicidal effects Cyperus serotinus” value ([3]; chemical dosage 20 g/a) was 5 (Growth inhibition rate; 91 to 100%). For the same compound, the “Herbicidal effects Scirpus joncoides” value ([4]; chemical dosage 10 g/a) was 5 (Growth inhibition rate; 91 to 100%), the “Herbicidal effects Scirpus joncoides” value ([4]; chemical dosage 20 g/a) was 5 (Growth inhibition rate; 91 to 100%) and the “Herbicidal effects Broad leaf” value ([5]; chemical dosage 10 g/a) was 5 (Growth inhibition rate; 91 to 100%). For the same compound, the “Herbicidal effects Broad leaf” value ([5]; chemical dosage 20 g/a) was 5 (Growth inhibition rate; 91 to 100%).
With `CCCS(=O)(=O)Oc1cc(Cl)nnc1Oc1ccccc1C` [Example 359] the “Crop injury against transplanted rice” value ([1]; chemical dosage 10 g/a) was 0 (Growth inhibition rate; 0 to 10%), the “Crop injury against transplanted rice” value ([1]; chemical dosage 20 g/a) was 0 (Growth inhibition rate; 0 to 10%) and the “Herbicidal effects Barnyard grass” value ([2]; chemical dosage 10 g/a) was 4 (Growth inhibition rate; 71 to 90%). For the same compound, the “Herbicidal effects Barnyard grass” value ([2]; chemical dosage 20 g/a) was 5 (Growth inhibition rate; 91 to 100%), the “Herbicidal effects Cyperus serotinus” value ([3]; chemical dosage 10 g/a) was 5 (Growth inhibition rate; 91 to 100%) and the “Herbicidal effects Cyperus serotinus” value ([3]; chemical dosage 20 g/a) was 5 (Growth inhibition rate; 91 to 100%). For the same compound, the “Herbicidal effects Scirpus joncoides” value ([4]; chemical dosage 10 g/a) was 3 (Growth inhibition rate; 51 to 70%), the “Herbicidal effects Scirpus joncoides” value ([4]; chemical dosage 20 g/a) was 4 (Growth inhibition rate; 71 to 90%) and the “Herbicidal effects Broad leaf” value ([5]; chemical dosage 10 g/a) was 3 (Growth inhibition rate; 51 to 70%). For the same compound, the “Herbicidal effects Broad leaf” value ([5]; chemical dosage 20 g/a) was 5 (Growth inhibition rate; 91 to 100%).
`COc1cccc(C)c1Oc1nnc(Cl)cc1O` [Example 267] was tested, and the “Crop injury against transplanted rice” value ([1]; chemical dosage 10 g/a) was 0 (Growth inhibition rate; 0 to 10%), the “Crop injury against transplanted rice” value ([1]; chemical dosage 20 g/a) was 0 (Growth inhibition rate; 0 to 10%) and the “Herbicidal effects Barnyard grass” value ([2]; chemical dosage 10 g/a) was 1 (Growth inhibition rate; 11 to 30%). For the same compound, the “Herbicidal effects Barnyard grass” value ([2]; chemical dosage 20 g/a) was 2 (Growth inhibition rate; 31 to 50%), the “Herbicidal effects Cyperus serotinus” value ([3]; chemical dosage 10 g/a) was 5 (Growth inhibition rate; 91 to 100%) and the “Herbicidal effects Cyperus serotinus” value ([3]; chemical dosage 20 g/a) was 5 (Growth inhibition rate; 91 to 100%). The “Herbicidal effects Scirpus joncoides” value ([4]; chemical dosage 10 g/a) was 4 (Growth inhibition rate; 71 to 90%), the “Herbicidal effects Scirpus joncoides” value ([4]; chemical dosage 20 g/a) was 5 (Growth inhibition rate; 91 to 100%) and the “Herbicidal effects Broad leaf” value ([5]; chemical dosage 10 g/a) was 5 (Growth inhibition rate; 91 to 100%). The “Herbicidal effects Broad leaf” value ([5]; chemical dosage 20 g/a) was 5 (Growth inhibition rate; 91 to 100%).
With `Cc1cc(C)cc(Oc2nnc(Cl)cc2O)c1` [Example 281] the “Crop injury against transplanted rice” value ([1]; chemical dosage 12.5 g/a) was 0 (Growth inhibition rate; 0 to 10%), the “Crop injury against transplanted rice” value ([1]; chemical dosage 25 g/a) was 0 (Growth inhibition rate; 0 to 10%) and the “Herbicidal effects Barnyard grass” value ([2]; chemical dosage 12.5 g/a) was 0 (Growth inhibition rate; 0 to 10%). The “Herbicidal effects Barnyard grass” value ([2]; chemical dosage 25 g/a) was 0 (Growth inhibition rate; 0 to 10%), the “Herbicidal effects Cyperus serotinus” value ([3]; chemical dosage 12.5 g/a) was 5 (Growth inhibition rate; 91 to 100%) and the “Herbicidal effects Cyperus serotinus” value ([3]; chemical dosage 25 g/a) was 5 (Growth inhibition rate; 91 to 100%). The “Herbicidal effects Scirpus joncoides” value ([4]; chemical dosage 12.5 g/a) was 2 (Growth inhibition rate; 31 to 50%), the “Herbicidal effects Scirpus joncoides” value ([4]; chemical dosage 25 g/a) was 3 (Growth inhibition rate; 51 to 70%) and the “Herbicidal effects Broad leaf” value ([5]; chemical dosage 12.5 g/a) was 5 (Growth inhibition rate; 91 to 100%). For the same compound, the “Herbicidal effects Broad leaf” value ([5]; chemical dosage 25 g/a) was 5 (Growth inhibition rate; 91 to 100%).
`Cc1cccc(C(C)C)c1Oc1nnc(Cl)cc1O` [Example 261] was tested, and the “Crop injury against transplanted rice” value ([1]; chemical dosage 10 g/a) was 0 (Growth inhibition rate; 0 to 10%), the “Crop injury against transplanted rice” value ([1]; chemical dosage 20 g/a) was 0 (Growth inhibition rate; 0 to 10%) and the “Herbicidal effects Barnyard grass” value ([2]; chemical dosage 10 g/a) was 2 (Growth inhibition rate; 31 to 50%). For the same compound, the “Herbicidal effects Barnyard grass” value ([2]; chemical dosage 20 g/a) was 2 (Growth inhibition rate; 31 to 50%), the “Herbicidal effects Cyperus serotinus” value ([3]; chemical dosage 10 g/a) was 5 (Growth inhibition rate; 91 to 100%) and the “Herbicidal effects Cyperus serotinus” value ([3]; chemical dosage 20 g/a) was 5 (Growth inhibition rate; 91 to 100%). The “Herbicidal effects Scirpus joncoides” value ([4]; chemical dosage 10 g/a) was 4 (Growth inhibition rate; 71 to 90%), the “Herbicidal effects Scirpus joncoides” value ([4]; chemical dosage 20 g/a) was 5 (Growth inhibition rate; 91 to 100%) and the “Herbicidal effects Broad leaf” value ([5]; chemical dosage 10 g/a) was 5 (Growth inhibition rate; 91 to 100%). The “Herbicidal effects Broad leaf” value ([5]; chemical dosage 20 g/a) was 5 (Growth inhibition rate; 91 to 100%).
